Consider three compounds from patent US12655126B2, “Imidazole-pyrazole derivatives as antibacterials” (Hoffmann-La Roche Inc., priority 2020, dated 2026).

Where two headings read alike, the source gives them in different places.

This experiment relates to Acinetobacter baumannii ATCC17961. The experiment is described as follows: Antimicrobial susceptibility testing: 90% growth inhibitory concentration (IC90) determination. In kind it is cell-based. As to conditions: read-out: ATCC 17961 IC90. The method in brief: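 Broth microdilution in Iso-Sensitest medium with twofold dilutions (e.g. 50 to 0.097 μM final) and inoculum ~5×10^(5) CFU/ml, 35±2 °C. OD600 was followed for 16 h; IC90 was derived from inhibition during logarithmic growth.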

[1] abbreviates: Acinetobacter baumannii ATCC17961, Iso-Sensitest broth, growth by OD 600 nm over 16 h, 90% growth inhibitory concentration.

For orientation: IC90 means the point of the concentration-response curve where the effect stands at 90%. For the compound `COCc1c[nH]nc1-n1cc(-c2cnc(C(=O)Nc3ccc(C(=O)N4CCN(C(=O)C5CC[N+](C)(C)CC5)CC4)c(Cl)c3)n2C)c(C(F)(F)F)n1` [Example K3, N-[3-chloro-4-[4-(1,1-dimethylpiperidin-1-ium-4-carbonyl)piperazine-1-carbonyl]phenyl]-5-[1-[4-(methoxymethyl)-1H-pyrazol-3-yl]-3-(trifluoromethyl)pyrazol-4-yl]-1-methyl-imidazole-2-carboxamide], the IC90 under setting [1] turned out to be 1300 nM.

For the compound `CNC(=O)CCNc1ccc(-n2cc(-c3cnc(C(=O)Nc4ccc(C(=O)N5CCN(C(=O)C6CC[N+](C)(C)CC6)CC5)c(Cl)c4)n3C)c(C(F)(F)F)n2)nc1` [Example L2, N-[3-chloro-4-[4-(1,1-dimethylpiperidin-1-ium-4-carbonyl)piperazine-1-carbonyl]phenyl]-5-[1-[5-[[3-keto-3-(methylamino)propyl]amino]-2-pyridyl]-3-(trifluoromethyl)pyrazol-4-yl]-1-methyl-imidazole-2-carboxamide], the IC90 under setting [1] stood at 330 nM.

Regarding `Cn1c(-c2cn(-c3ccc(NCCN)cn3)nc2C(F)(F)F)cnc1C(=O)Nc1ccc(C(=O)N2CCN(C(=O)C3CC[N+](C)(C)CC3)CC2)c(Cl)c1` [Example M1, 5-[1-[5-(2-aminoethylamino)-2-pyridyl]-3-(trifluoromethyl)pyrazol-4-yl]-N-[3-chloro-4-[4-(1,1-dimethylpiperidin-1-ium-4-carbonyl)piperazine-1-carbonyl]phenyl]-1-methyl-imidazole-2-carboxamide; 2,2,2-trifluoroacetic acid; 2,2,2-trifluoroacetate], the IC90 (Acinetobacter baumannii, ATCC17961, 16 h) worked out at 100 nM.
